Assay results taken from patent publication US20020141966A1, “Compositions for treatment of malignant effusions, and methods of making and using the same” (priority 2000, published 2002).

Legend:
[1] = test system: human colon carcinoma cell line HT29; assay: Survival study in HT29 colon cancer xenograft mouse model; assay type: in vivo, SCID mice; settings: Paclitaxel 40 mg/kg, IP on day 4 post tumor cell implantation
Description: PACLIMER was provided as in powder and suspended in the vehicle (0.1% Tween80 in normal saline) just before administration. Paclitaxel was purchased from Bristol-Myers Squib Co., which was provided as a solution at a concentration of 6 mg/ml. The paclitaxel solution was diluted to 1 mg/ml with 0.9% sodium chloride just before use.
The human colon carcinoma cell line HT29 was used to set up the colon cancer xenograft mouse model. SCID mice were injected i.p. with 10 million cells. This generally results in death from the tumor metastasis and ascites around 30 days after tumor implantation. HT29 cells growing as a monolayer were harvested with trypsin and washed with PBS. The packed cells were resuspended in PBS (10 million cells per ml PBS). 48 SCID mice (C.B.17/Icr SCID, 8-10 weeks of age) were injected i.p. with 1 ml of the HT29 cell suspension (10 million cells for each mouse). 4 days after tumor implantation, the animals were grouped randomly. […]
For the ascites study, PACLIMER was to be given when obvious ascites was found in the mice. […] On 1, 5, and 10 days after treatment, 4 mice in each group was sacrificed at each time point and the ascites volumes were measured. […]

[2] = test system: malignant effusions associated with non-small cell lung cancer; settings: cited from earlier work
[3] = single 125 mg/m2 dose diluted in saline, intracavitary

In the case of `CC(=O)O[C@H]1C(=O)[C@@]2(C)[C@H]([C@H](OC(=O)c3ccccc3)[C@]3(O)C[C@H](OC(=O)[C@H](O)[C@@H](NC(=O)c4ccccc4)c4ccccc4)C(C)=C1C3(C)C)[C@]1(OC(C)=O)CO[C@@H]1C[C@@H]2O` [Paclitaxel, paclitaxel], the “Median Survival” value [1] is given as 44 days, the complete response rate [2, 3] is given as 28.6% and the total response rate [2, 3] is given as 92.9%. The “patients with total tumor mass reduced by more than 50%” value ([2]; single 125 mg/m2 dose, following the treatment) was “one patient out of fourteen”.
